Experimental data: patent publication US12479892B2, “Immunogenic protein against gonococcal infection” (priority 2019, dated 2025)
Like-named read-outs stand apart in the source and are kept apart here.

Assays:
NHBANg = NHBANg (Neisseria gonorrhoeae, UniProt B4RQT3); test: SPR analysis of glycan binding; settings: for SPR binding, in words: glycans 100 μM to 1 nM
Method: Surface plasmon resonance (SPR) was performed using a BIAcore T200 instrument with recombinant NHBANg (100 μg/ml) immobilized on flow cells 2-4 by amine coupling on series S CMS sensor chips (GE Healthcare) as described previously. Flow cell 1 was used as the reference cell and immobilized with ethanolamine only. Single cycle kinetics was used to calculate the affinity (KD) of interactions with glycans run in 1:5 dilution series at concentrations between 100 μM to 1 nM. Results were analysed using BIAcore T200 software 2.0.2.

[1] = system: N. gonorrhoeae 1291 ΔNHBA; test: Normal human serum survival assay; assay type: cell-based, Neisseria gonorrhoeae; settings: ΔNHBA mutant; 10% normal human serum, 60 minutes; 6 μM heparin pre-incubation
Method: Resistance of N. gonorrhoeae to serum-mediated killing was tested as described previously with ˜10^4 CFU incubated in 10% (v/v) for 60 minutes at 37° C. and subsequently plated on GC agar. Bacteria were pre-incubated with 6 μM heparin 30 minutes where indicated. Bacterial survival was calculated as percent CFU (average from three replicate wells) relative to no treatment control.

NHBANm = NHBANm (Neisseria meningitidis serogroup B, UniProt Q7DD37); settings: cited from earlier work
[2] = system: NHBA-heparin interactions; test: SPR competition assay, blocking of NHBA-heparin interactions by sera; assay type: binding, Neisseria gonorrhoeae; settings: 1:200 dilution of serum; heparin max 50 μM
Method: SPR competition assays were performed using a Pall Pioneer FE. Competition assays were performed as previously described using NextStep injections in the OneStep assay builder. Pre- and post-immune NHBA mouse sera were used as the first injection (A), and heparin as the second injection (B). Binding of heparin (maximum OneStep concentration of 50 μM) to NHBA was compared with and without serum, and with 1:200 dilution of pre- or post-immune serum. Data was collected using the Pioneer Software package and analyzed using Qdat analysis software. The percentage blocking was calculated based on the relative RMax of the heparin injection without serum (Injection A=buffer; B=heparin) versus the serum subtracted (Injection A=pre/postimmune serum; B=buffer) binding of heparin in the presence of serum ((Injection A=pre/postimmune serum; B=heparin).

[3] = system: N. gonorrhoeae adherence to urethral (tUEC) epithelial cells; test: Blocking of gonococcal adherence by sera, urethral epithelial cells; assay type: cell-based, Neisseria gonorrhoeae
Method: (§1) Gonococcal adherence assays were performed as described previously with following modifications. Briefly, tCX and tUEC cell monolayers were infected (10 min at 37° C.) with approximately 1×10^5 CFU that was initially pre-incubated with serial dilutions of heat-inactivated mouse sera for 30 min at room temperature. Following the infection, cell monolayers were washed three times with warm HBSS to remove non-adherent bacteria and well contents plated onto GC agar. Results were calculated as the mean CFU from three replicate wells and presented as percentage of adherent bacteria relative to no antibody control. Statistical analysis performed with ANOVA and two-tailed Student's t-test. Each experiment was performed three times.

[4] = system: N. gonorrhoeae adherence to cervical (tCX) epithelial cells; test: Blocking of gonococcal adherence by sera, cervical epithelial cells; assay type: cell-based, Neisseria gonorrhoeae
Method: as §1

[5] = single cycle kinetics, immobilised NHBANg, read-out: KD

CC(=O)N[C@H]1[C@H](O[C@H]2[C@@H](O)[C@@H](CO)O[C@@H](O[C@H]3[C@H](O)[C@@H](O)C(O)O[C@@H]3CO)[C@@H]2O)O[C@H](CO)[C@@H](O[C@@H]2O[C@H](CO[C@]3(C(=O)O)C[C@H](O)[C@@H](NC(C)=O)[C@H]([C@H](O)[C@H](O)CO)O3)[C@H](O)[C@H](O)[C@H]2O)[C@@H]1O (stereo partly drawn) [LSTc]
Kd (NHBANg): 240 nM

chondroitin 6-sulfate [chondroitin sulfate C]
SPR binding, in words (NHBANg): bound

chondroitin 4-sulfate [chondroitin sulfate A]
SPR binding, in words (NHBANg): no concentration dependent binding

CC(=O)N[C@H]1[C@H](O[C@H]2[C@@H](O)[C@@H](CO)O[C@@H](O[C@H]3[C@H](O)[C@@H](O)C(O)O[C@@H]3CO)[C@@H]2O)O[C@H](CO)[C@@H](O[C@@H]2O[C@H](CO)[C@H](O)[C@H](O)[C@H]2O)[C@@H]1O (stereo partly drawn) [LNnT, lacto N-neotetraose]
Kd (NHBANg): 4890 nM

chondroitin sulfate
Kd (NHBANg; [5]): 73 nM

heparin
survival in human serum after pre-treatment, in words [1]: increased survival | Kd (NHBANg; [5]): 4.4 nM

C[C@@H]1O[C@@H](O[C@@H]2[C@@H](O)[C@@H](O)[C@@H](CO)O[C@H]2O)[C@@H](O)[C@H](O)[C@@H]1O [H-disaccharide]
SPR binding, in words (NHBANg): No concentration dependent binding

hyaluronan
SPR binding, in words (NHBANg): No concentration dependent binding

dermatan sulfate [chondroitin sulfate B]
SPR binding, in words (NHBANg): no concentration dependent binding

O=C[C@H](O)[C@@H](O)[C@H](O)[C@H](O)COP(=O)(O)O [β-Glc6P, glucose 6-phosphate]
Kd (NHBANm): 56 nM

CC(=O)N[C@H]1[C@H](O[C@H]2[C@@H](O)[C@@H](CO)O[C@@H](O[C@H]3[C@H](O)[C@@H](O)C(O)O[C@@H]3CO)[C@@H]2O)O[C@H](CO[C@]2(C(=O)O)C[C@H](O)[C@@H](NC(C)=O)[C@H]([C@H](O)[C@H](O)CO)O2)[C@@H](O)[C@@H]1O[C@@H]1O[C@H](CO)[C@H](O)[C@H](O)[C@H]1O (stereo partly drawn) [LSTb]
Kd (NHBANg): 2260 nM

heparan sulfate
Kd (NHBANg; [5]): 2790 nM

CC(=O)N[C@H]1[C@H]([C@H](O)[C@H](O)CO)O[C@@](O[C@H]2[C@@H](O)[C@@H](CO)O[C@@H](O[C@H]3[C@H](O[C@@H]4O[C@@H](C)[C@@H](O)[C@@H](O)[C@@H]4O)[C@@H](NC(C)=O)C(O)O[C@@H]3CO)[C@@H]2O)(C(=O)O)C[C@@H]1O (stereo partly drawn) [sialyl Lewis X]
Kd (NHBANg; single cycle kinetics, immobilised NHBANg): 3650 nM

CC(=O)N[C@H]1C(O)O[C@H](CO)[C@@H](O[C@@H]2O[C@H](CO)[C@H](O)[C@H](O)[C@H]2O)[C@@H]1O[C@@H]1O[C@@H](C)[C@@H](O)[C@@H](O)[C@@H]1O (stereo partly drawn) [Lewis X]
fold greater affinity than for sialyl Lewis X (NHBANg; ratio of KD): 5 fold | Kd (NHBANg; [5]): 680 nM

B1: NHBA-c: C-terminal fragment of NHBA of N. gonorrhoeae 1291 (SEQ ID NO:2, 183 amino acids); antisera to it, adjuvant not stated at place (protein)
chain: SLPAEIPLIPVNQADTLIVDGEAVSLTGHSGNIFAPEGNYRYLTYGAEKLPGGSYALRVQGEPAKGEMLAGTAVYNGEVLHFHMENGRPYPSGGRFAAKVDFGSKSVDGIIDSSDDLHMGTQKFKAAIDGNGFKGTWTENGGGDVSGRFYGPAGEEVAGKYSYRPTDAEKGGFGVFAGKKDRD
modifications: Neisseria gonorrhoeae (strain 1291)
reduction of heparin binding to NHBA [2]: 11% | decrease of gonococcal adherence ([3]; tUEC cells, 1:20 dilution of sera, relative to no antibody control): 5 fold | adherence of serum-treated gonococci, in words ([3]; urethral epithelial cells, all tested concentrations, relative to untreated control): significantly reduced adherence | adherence of serum-treated gonococci, in words ([4]; cervical epithelial cells, all tested concentrations, relative to untreated control): significantly reduced adherence | decrease of gonococcal adherence ([4]; tCX cells, 1:20 dilution of sera, relative to no antibody control): 8 fold
